Active and inactive are the calls of the source.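 Rule for the calls: active = AC50 no more than ten times the top concentration tested, that is within one log above it; inconclusive = flat curve fit with activity between 30% and 70%, or invalid poor fit; inactive = AC50 beyond ten times the top tested dose.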
test system: S. cerevisiae Mot1-301 ts growth rescue, BacTiter-Glo ATP luminescence; assay: restored Mot1-301 yeast growth at 38.5C – whole organism, S. cerevisiae, Mot1-301 ts mutant, luminescence, dose retest, SUMOylation pathway inhibitor project, confirmation (AID 463204);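 note: growth at restrictive 38.5 degrees C of Mot1-301 OY566 strain; actives raise luminescence by restoring growth of the ts mutant at high temperature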

| SMILES | AC50 |
| --- | --- |
| CCCc1cc(=O)oc2c3c(c4c(c12)OC(C)(C)C=C4)OC(C)C(C)C3O (stereo not drawn) | > 42 µM (inactive) |
| C=CCNC(=O)c1cc(-c2cccnc2)nc2ccccc12 | > 42 µM (inactive) |
| Cc1cc(S(=O)(=O)N2CCCCC2CCNC(=O)C(=O)NCC2CCCO2)ccc1F (stereo not drawn) | > 42 µM (inactive) |
| COc1ccc2c(c1)OC[C@H]1[C@H]2N2C(=O)c3cc(F)ccc3NC(=O)[C@@]2(C)[C@H]1c1ccccc1 | 3.15 µM |
| CCCOc1ccc(C(=O)NCc2ccco2)cc1 | > 42 µM (inactive) |
| C/C(=N\N=C(/N)SC1CC(=O)N(c2cccc(Cl)c2)C1=O)c1cccs1 (stereo not drawn) | > 42 µM (inactive) |
| O=C(c1cc(-c2ccc(Cl)c(Cl)c2)on1)N1CCN(c2ccccc2)CC1 | > 42 µM (inactive) |
| CC(=O)C(C(c1ccccc1)c1c[nH]c2ccccc12)[N+](=O)[O-] (stereo not drawn) | 33 µM |
| Cn1c(=O)[nH]c(=O)c2c1nc(NCCN)n2CCOc1ccccc1 | > 42 µM (inactive) |
| Cc1cnc(NC(=O)CSc2nc3ccccc3s2)s1 | > 42 µM (inactive) |
| COc1ccc(CCNC(=O)CC2C(=O)NCCN2CC(C)(C)C)cc1 (stereo not drawn) | > 42 µM (inactive) |
| CCCCC(=O)NCCc1ccc(S(N)(=O)=O)cc1 | > 42 µM (inactive) |
| CC1CC(c2ccccc2)NS(=O)(=O)O1 (stereo not drawn) | > 42 µM (inactive) |
| COc1ccc(C)cc1S(=O)(=O)N1CCC(C(=O)NCCc2ccccc2)CC1 | > 42 µM (inactive) |
| O=C(CSc1nnc(COc2ccccc2Cl)o1)NC(=O)NC1CCCC1 | > 42 µM (inactive) |
| C/C(O)=C(\N=Nc1cc(C)ccc1O)C(N)=O | > 42 µM (inactive) |
| Cc1ccc(Sc2cnccc2C#N)cc1 | > 42 µM (inactive) |
| Cc1cc(C)n(CCCNC(=O)CN(C)S(=O)(=O)c2ccc(Cl)cc2)n1 | > 42 µM (inactive) |
| NC(=O)C1CCCN(C(=S)Nc2cccc3ccccc23)C1 (stereo not drawn) | > 42 µM (inactive) |
| Fc1cccc(F)c1-c1nc(-c2ccncc2)no1 | > 42 µM (inactive) |
| CC(C)N(C(=S)Nc1cccc(S(=O)(=O)N(C)C)c1)c1ccccc1 | > 42 µM (inactive) |
| Nc1nnc(CC(=O)N2CCCCC2)s1 | > 42 µM (inactive) |
| COc1ccccc1N1CCN(C(=O)C2CCN(S(=O)(=O)c3ccc(C)cc3)CC2)CC1 | > 42 µM (inactive) |
| COc1ccc2c(CC(=O)Nc3ccc(OC)c(NS(=O)(=O)c4ccc(F)cc4)c3)coc2c1 | > 42 µM (inactive) |
| O=C(CSc1ncccc1C(=O)O)NC1CCCCC1 | > 42 µM (inactive) |

| SMILES | AC50 |
| --- | --- |
| Cc1cc(-c2ccccc2)n(-c2ccc(C(=O)NC(C)C)cc2)n1 | > 42 µM (inactive) |
| COCC(C)n1c(C)cc(C(=O)CSc2ccc(NC(C)=O)cc2)c1C (stereo not drawn) | > 42 µM (inactive) |
| O=C(c1cc(Cl)c(=O)n(Cc2ccc(Cl)cc2)c1)N1CCOCC1 | > 42 µM (inactive) |
| COc1ccc(NC(=O)c2cc(S(=O)(=O)Nc3ccc(OC)cc3)cs2)cc1 | > 42 µM (inactive) |
| O=C(O)C1CCCN1C(=O)c1cncc(Br)c1 (stereo not drawn) | > 42 µM (inactive) |
| CCn1c(-c2ccccc2)c(C(=O)CC#N)c2ccccc21 | > 42 µM (inactive) |
| Nc1nnnn1CC(=O)N/N=C/c1cccs1 | > 42 µM (inactive) |
| OC1(c2ccc(F)cc2)CC2CCC(C1)N2Cc1nnnn1C1CCCCC1 (stereo not drawn) | > 42 µM (inactive) |
| COc1ccc(S(=O)(=O)Nc2ccc(NC(C)=O)cc2)cc1OC | > 42 µM (inactive) |
| CC(C)CCCN1CCN=C1Nc1ccccc1 | > 42 µM (inactive) |
| COc1ccc(NC2=C(C)C(=O)CC2)cc1 | > 42 µM (inactive) |
| CCc1ccccc1NC1c2ccccc2C(=O)N1c1cccnc1 (stereo not drawn) | > 42 µM (inactive) |
| O=C(c1cc(N2C(=O)C3C4CCC(C4)C3C2=O)ccc1Cl)N1CCCCCC1 (stereo not drawn) | > 42 µM (inactive) |
| Cn1c(SCC(=O)Nc2ccc(N3CCOCC3)c(Cl)c2)nnc1-c1ccccc1 | > 42 µM (inactive) |
| COc1cc(CNCc2ccc3c(c2)OCO3)c([N+](=O)[O-])cc1OC | > 42 µM (inactive) |
| Cc1nc2ccc(S(=O)(=O)NC(CC(C)C)C(=O)O)cc2s1 (stereo not drawn) | > 42 µM (inactive) |
| CCn1nccc1C(=O)Nc1ccccc1OC | > 42 µM (inactive) |
| CCCCOC(=O)/C(=C/C=C/c1ccccc1)NC(=O)c1ccccc1 | > 42 µM (inactive) |
| CC(C)NC(=O)c1ccccc1-c1ccccc1 | > 42 µM (inactive) |
| CCCNC(=O)c1cc2c(C(F)(F)F)nn(C)c2s1 | > 42 µM (inactive) |
| CCS(=O)(=O)N1CCC(C(=O)N2CCc3ccccc3C2)CC1 | > 42 µM (inactive) |
| CCN(CC)CCNC(=O)CCn1c(=S)[nH]c2cc3c(cc2c1=O)OCO3 | > 110 µM (inactive) |
| Cc1ccc(C)c(-n2nnnc2SCC(=O)Nc2c(C)n(C)n(-c3ccccc3)c2=O)c1 | > 42 µM (inactive) |
| CC(C)Oc1ccc(C2(C#N)CC[N+](C)(C)CC2)cc1 | > 42 µM (inactive) |
| Cc1ccc(Oc2ccccc2NC(=O)C2=COCCO2)cc1 | > 42 µM (inactive) |

| SMILES | AC50 |
| --- | --- |
| COc1ccccc1NC(=O)c1nn(-c2cccc(C(F)(F)F)c2)ccc1=O | > 42 µM (inactive) |
| O=Cc1ccc(Oc2cccc(C(F)(F)F)c2)nc1 | > 42 µM (inactive) |
| CC[C@H]1CCCCc2ccccc2[C@@H](C(=O)C[C@@H](O)CC(C)=O)OC1=O | 14.2 µM |
| CC(=O)Nc1sc2c(c1C(c1ccc(F)cc1)N1CCOCC1)CCCC2 (stereo not drawn) | 11.8 µM |
| CCOc1ccc(C(=O)NCC2OCCc3ccccc32)cc1 (stereo not drawn) | > 42 µM (inactive) |
| COc1ccc(Nc2oc(-c3cccs3)nc2C#N)cc1 | > 42 µM (inactive) |
| Cc1cc(C)cc(OCC(=O)Nc2ccc(N3CCN(C(=O)c4ccco4)CC3)cc2)c1 | > 42 µM (inactive) |
| CCn1c(SCC(=O)Nc2ccc(NC(=O)c3ccco3)cc2)nnc1-c1cccs1 | > 42 µM (inactive) |
| C=CCN1c2ccccc2[C@]23C[C@@H](C(=O)OC)N=C2NC(C(=O)OC)=C(C(=O)OC)[C@H]13 | > 42 µM (inactive) |
| C/C(=N\NC(=O)c1ccc(Cl)cc1)c1cccnc1 | > 42 µM (inactive) |
| CC(=O)N(C)c1ccc(N2CCOCC2)c2c1C(=O)c1ccccc1C2=O | > 42 µM (inactive) |
| COc1ccc(NS(=O)(=O)c2ccc(OCC(=O)N3CCOCC3)cc2)cc1Cl | > 42 µM (inactive) |
| CN1C(C(=O)Nc2ccccn2)=C(O)c2sccc2S1(=O)=O | > 42 µM (inactive) |
| CCCCCCCN1C(Nc2ccccc2)=NC[C@@H]1CC(C)C | > 21 µM (inactive) |
| COc1ccc2c(C(=O)CN3CC(C)OC(C)C3)c[nH]c2c1 (stereo not drawn) | > 42 µM (inactive) |
| O=C(CCS(=O)(=O)c1ccc(Br)s1)NCc1ccccc1 | > 42 µM (inactive) |
| NC(=O)C1=C[C@@H](c2ccc(Br)cc2)C[C@@H](OCCCCO)O1 | > 42 µM (inactive) |
| O=C(Cc1cccs1)Nc1cccc(-c2nnc(-c3ccco3)o2)c1 | > 42 µM (inactive) |
| CC(C)C(NC(=O)c1ccccc1)C(=O)NCC(c1ccccc1)N(C)C (stereo not drawn) | > 42 µM (inactive) |
| COc1ccc(S(=O)(=O)NCC(=O)N(CC(=O)NCC2CCCO2)c2ccccc2C)cc1 (stereo not drawn) | > 42 µM (inactive) |
| O=C1CCc2cc(S(=O)(=O)N3CCC(C(=O)NC4CCCC4)CC3)ccc2N1 | > 42 µM (inactive) |
| COc1ccc2nc(SCC(=O)N(C)CC(=O)Nc3ccc(F)cc3)[nH]c2c1 | > 42 µM (inactive) |
| COc1ccc(CCC(=O)NNC(=S)Nc2cccc(C(C)=O)c2)cc1 | > 42 µM (inactive) |

Reference: PubChem BioAssay AID463204 (Broad Institute, 2010)
